What was measured:
morningglory = assay: Test E preemergence herbicide test; assay type: in vivo, Ipomoea coccinea; design: key: 0 = no effect, 100 = complete control
Excerpt: (§1) Seeds of plant species selected from corn (Zea mays), soybean (Glycine max), velvetleaf (Abutilon theophrasti), lambsquarters (Chenopodium album), wild poinsettia (Euphorbia heterophylla), pigweed, palmer (palmer pigweed, Amaranthus palmeri), waterhemp (common waterhemp, Amaranthus rudis), surinam grass (Brachiaria decumbens), crabgrass, large (large crabgrass, Digitaria sanguinalis), crabgrass, Brazil (Brazilian crabgrass, Digitaria horizontalis), panicum, fall (fall panicum, Panicum dichotomiflorum), foxtail, giant (giant foxtail, Setaria faberii), foxtail, green (green foxtail, Setaria viridis), goosegrass (Eleusine indica), johnsongrass (Sorghum halepense), ragweed (common ragweed, Ambrosia elatior), barnyardgrass (Echinochloa crus-galli), sandbur (southern sandbur, Cenchrus echinatus), arrowleaf […] rhombifolia), ryegrass, Italian (Italian ryegrass, Lolium multiflorum), dayflower, VA (Virginia dayflower, Commelina virginica), field bindweed (Convolvulus arvensis), morningglory (Ipomoea coccinea), nightshade (eastern black nightshade, Solanum ptycanthum), kochia (Kochia scoparia), nutsedge, yellow (yellow nutsedge, Cyperus esculentus), cocklebur (common cocklebur, Xanthium strumarium), smartweed (ladysthumb smartweed, Polygonum Persicaria) and beggarticks (hairy beggarticks, Bidens pilosa), were planted into a silt loam soil and treated preemergence with test chemicals formulated in a non-phytotoxic solvent mixture which included a surfactant. Treated plants and controls were maintained in a greenhouse for 21 days, after which time all species were compared to controls and visually evaluated. Plant response ratings, summarized in Table E, are based on a scale of 0 to 100 where 0 is no effect and 100 is complete control. A dash (-) response means no test result.

foxtail, giant = assay: Test E preemergence herbicide test; assay type: in vivo, Setaria faberii; design: key: 0 = no effect, 100 = complete control
Excerpt: as §1

oat, wild = assay: Test D pre-/postemergence herbicide test; assay type: in vivo, Avena fatua; details: for Plant response rating: Postemergence, Oat, Wild, scale 0 to 100; for Plant response rating, Oat, Wild: Preemergence, scale 0 to 100 (0 no effect, 100 complete control)
Method in brief: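 Compound applied in non-phytotoxic solvent with surfactant, either preemergence (silt loam soil) or postemergence (peat moss/vermiculite medium, 2–18 cm plants). Evaluated visually after 7 to 21 days; 0 = no effect, 100 = complete control.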

field bindweed = assay: Test E preemergence herbicide test; assay type: in vivo, Convolvulus arvensis; design: key: 0 = no effect, 100 = complete control
Excerpt: as §1

field violet = assay: Test D pre-/postemergence herbicide test; assay type: in vivo, Viola arvensis; details: for Plant response rating: Field Violet, scale 0 to 100; for Plant response rating, Field Violet: scale 0 to 100 (0 no effect, 100 complete control)
Excerpt: Seeds of plant species selected from bluegrass (annual bluegrass, Poa annua), blackgrass (Alopecurus myosuroides), canarygrass (littleseed canarygrass, Phalaris minor), chickweed (common chickweed, Stellaria media), galium (catchweed bedstraw, Galium aparine), bromegrass, downy (downy bromegrass, Bromus tectorum), field poppy (Papaver rhoeas), field violet (Viola arvensis), foxtail, green (green foxtail, Setaria viridis), deadnettle (henbit deadnettle, Lamium amplexicaule), ryegrass, Italian (Italian ryegrass, Lolium multiflorum), kochia (Kochia scoparia), lambsquarters (Chenopodium album), oilseed rape (Brassica napus), pigweed (Amaranthus retroflexus), chamomile (scentless chamomile, Matricaria inodora), Russian thistle (Salsola kali), speedwell (bird's-eye speedwell, Veronica persica), barley, spring (spring barley, Hordeum vulgare), wheat, spring (spring wheat, Triticum aestivum), buckwheat, wild (wild buckwheat, Polygonum convolvulus), mustard, wild (wild mustard, Sinapis arvensis), oat, wild (wild oat, Avena fatua), radish, wild (wild radish, Raphanus raphanistrum), […]), barley, winter (winter barley, Hordeum vulgare), and wheat, winter (winter wheat, Triticum aestivum) were planted into a silt loam soil and treated preemergence with test chemicals formulated in a non-phytotoxic solvent mixture which included a surfactant. At the same time, these species were planted in pots containing Redi-Earth® planting medium (Scotts Company, 14111 Scottslawn Road, Marysville, Ohio 43041) comprising spaghnum peat moss, vermiculite, wetting agent and starter nutrients and treated with postemergence applications of the test chemicals formulated in the same manner. Plants ranged in height from 2 to 18 cm (1- to 4-leaf stage). Treated plants and controls were maintained in a controlled growth environment for 7 to 21 days after which time all species were compared to controls and visually evaluated. Plant response ratings, summarized in Table D, are based on a scale of 0 to 100 where 0 is no effect and 100 is complete control. A dash (-) response means no test result.

waterhemp = assay: Test E preemergence herbicide test; assay type: in vivo, Amaranthus rudis; design: key: 0 = no effect, 100 = complete control
Excerpt: as §1

barnyardgrass = assay: Test F flood (paddy) test; assay type: in vivo, Echinochloa crus-galli; details: 21 d, scale 0-100
Method in brief: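 Pots of sterilized Tama silt loam (35:50:15 sand:silt:clay, 2.6% organic matter) were sown so crop and weeds reached the 2.0–2.5-leaf stage; greenhouse 30/27 °C, 16-h photoperiod. Pots flooded to 3 cm, compound applied into paddy water, depth maintained. Visual rating vs untreated controls after 21 d, 0–100 scale.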

O=C1NCC(c2ccc(C(F)(F)F)cc2)C1C(=O)Nc1cccc(F)c1F (racemic) [Compound 202]
Plant response rating, Morningglory (morningglory; 31 g ai/ha): 0
Plant response rating, Morningglory (morningglory; 62 g ai/ha): 0
Plant response rating, Morningglory (morningglory; 125 g ai/ha): 0
Plant response rating, Morningglory (morningglory; 250 g ai/ha): 30
Plant response rating, Foxtail, Giant (foxtail, giant; 31 g ai/ha): 35
Plant response rating, Foxtail, Giant (foxtail, giant; 62 g ai/ha): 50
Plant response rating, Foxtail, Giant (foxtail, giant; 125 g ai/ha): 95
Plant response rating, Foxtail, Giant (foxtail, giant; 250 g ai/ha): 98
Plant response rating (oat, wild; 31 g ai/ha): 5
Plant response rating (oat, wild; 62 g ai/ha): 10
Plant response rating (oat, wild; 125 g ai/ha): 10
Plant response rating (oat, wild; 250 g ai/ha): 15
Plant response rating, Oat, Wild (oat, wild; 62 g ai/ha): 20
Plant response rating, Oat, Wild (oat, wild; 125 g ai/ha): 35
Plant response rating, Oat, Wild (oat, wild; 31 g ai/ha): 5
Plant response rating, Oat, Wild (oat, wild; 250 g ai/ha): 40
Plant response rating, Field Bindweed (field bindweed; 31 g ai/ha): 60
Plant response rating, Field Bindweed (field bindweed; 62 g ai/ha): 40
Plant response rating, Field Bindweed (field bindweed; 125 g ai/ha): 50
Plant response rating, Field Bindweed (field bindweed; 250 g ai/ha): 70
Plant response rating (field violet; Postemergence, 31 g ai/ha): 40
Plant response rating (field violet; Postemergence, 62 g ai/ha): 30
Plant response rating (field violet; Postemergence, 125 g ai/ha): 30
Plant response rating (field violet; Postemergence, 250 g ai/ha): 30
Plant response rating, Field Violet (field violet; Preemergence, 62 g ai/ha): 0
Plant response rating, Field Violet (field violet; Preemergence, 31 g ai/ha): 0
Plant response rating (field violet; Preemergence, 125 g ai/ha): 10
Plant response rating (field violet; Preemergence, 250 g ai/ha): 15
Plant response rating, Waterhemp (waterhemp; 31 g ai/ha): 50
Plant response rating, Waterhemp (waterhemp; 62 g ai/ha): 60
Plant response rating, Waterhemp (waterhemp; 125 g ai/ha): 95
Plant response rating, Waterhemp (waterhemp; 250 g ai/ha): 95

O=C1NCC(c2ccc(Cl)c(Cl)c2)C1C(=O)Nc1ccccc1F (racemic) [Compound 14]
Plant response rating, Morningglory (morningglory; 16 g ai/ha): 0
Plant response rating, Morningglory (morningglory; 31 g ai/ha): 0
Plant response rating, Morningglory (morningglory; 125 g ai/ha): 0
Plant response rating, Morningglory (morningglory; 250 g ai/ha): 0
Plant response rating, Foxtail, Giant (foxtail, giant; 16 g ai/ha): 0
Plant response rating, Foxtail, Giant (foxtail, giant; 31 g ai/ha): 0
Plant response rating, Foxtail, Giant (foxtail, giant; 62 g ai/ha): 0
Plant response rating, Foxtail, Giant (foxtail, giant; 125 g ai/ha): 10
Plant response rating, Foxtail, Giant (foxtail, giant; 250 g ai/ha): 90
Plant response rating, Field Bindweed (field bindweed; 16 g ai/ha): 0
Plant response rating, Field Bindweed (field bindweed; 31 g ai/ha): 0
Plant response rating, Field Bindweed (field bindweed; 62 g ai/ha): 0
Plant response rating, Field Bindweed (field bindweed; 125 g ai/ha): 0
Plant response rating, Field Bindweed (field bindweed; 250 g ai/ha): 0
Plant response rating, Waterhemp (waterhemp; 16 g ai/ha): 0
Plant response rating, Waterhemp (waterhemp; 31 g ai/ha): 0
Plant response rating, Waterhemp (waterhemp; 62 g ai/ha): 0
Plant response rating, Waterhemp (waterhemp; 125 g ai/ha): 0
Plant response rating, Waterhemp (waterhemp; 250 g ai/ha): 0

O=C1NCC(c2ccc(C(F)(F)F)cc2)C1C(=O)Nc1cccc(F)c1F (stereo not shown) [Compound 80, N-(2,3-difluorophenyl)-2-oxo-4-[4-(trifluoromethyl)phenyl]-3-pyrrolidinecarboxamide]
Plant response rating, Morningglory (morningglory; 16 g ai/ha): 0
Plant response rating, Morningglory (morningglory; 31 g ai/ha): 0
Plant response rating, Morningglory (morningglory; 62 g ai/ha): 0
Plant response rating, Morningglory (morningglory; 125 g ai/ha): 20
Plant response rating, Morningglory (morningglory; 250 g ai/ha): 40
Plant response rating, Foxtail, Giant (foxtail, giant; 16 g ai/ha): 0
Plant response rating, Foxtail, Giant (foxtail, giant; 31 g ai/ha): 65
Plant response rating, Foxtail, Giant (foxtail, giant; 62 g ai/ha): 75
Plant response rating, Foxtail, Giant (foxtail, giant; 125 g ai/ha): 80
Plant response rating, Foxtail, Giant (foxtail, giant; 250 g ai/ha): 90
Plant response rating (oat, wild; 31 g ai/ha): 10
Plant response rating (oat, wild; 62 g ai/ha): 10
Plant response rating (oat, wild; 125 g ai/ha): 5
Plant response rating (oat, wild; 250 g ai/ha): 10
Plant response rating, Oat, Wild (oat, wild; 62 g ai/ha): 5
Plant response rating, Oat, Wild (oat, wild; 125 g ai/ha): 10
Plant response rating, Oat, Wild (oat, wild; 31 g ai/ha): 0
Plant response rating, Oat, Wild (oat, wild; 250 g ai/ha): 20
Plant response rating, Field Bindweed (field bindweed; 16 g ai/ha): 0
Plant response rating, Field Bindweed (field bindweed; 31 g ai/ha): 0
Plant response rating, Field Bindweed (field bindweed; 62 g ai/ha): 0
Plant response rating, Field Bindweed (field bindweed; 125 g ai/ha): 0
Plant response rating, Field Bindweed (field bindweed; 250 g ai/ha): 0
Plant response rating (field violet; Postemergence, 31 g ai/ha): 15
Plant response rating (field violet; Postemergence, 62 g ai/ha): 20
Plant response rating (field violet; Postemergence, 125 g ai/ha): 15
Plant response rating (field violet; Postemergence, 250 g ai/ha): 25
Plant response rating, Field Violet (field violet; Preemergence, 62 g ai/ha): 20
Plant response rating, Field Violet (field violet; Preemergence, 31 g ai/ha): 0
Plant response rating (field violet; Preemergence, 125 g ai/ha): 20
Plant response rating (field violet; Preemergence, 250 g ai/ha): 25
Plant response rating, Waterhemp (waterhemp; 16 g ai/ha): 0
Plant response rating, Waterhemp (waterhemp; 31 g ai/ha): 20
Plant response rating, Waterhemp (waterhemp; 62 g ai/ha): 30
Plant response rating, Waterhemp (waterhemp; 125 g ai/ha): 50
Plant response rating, Waterhemp (waterhemp; 250 g ai/ha): 60

O=C1NCC(c2ccc(OC(F)F)cc2)C1C(=O)Nc1cccc(F)c1F (racemic) [Compound 350]
Plant response rating, Morningglory (morningglory; 31 g ai/ha): 0
Plant response rating, Morningglory (morningglory; 62 g ai/ha): 0
Plant response rating, Morningglory (morningglory; 125 g ai/ha): 0
Plant response rating, Morningglory (morningglory; 250 g ai/ha): 0
Plant response rating, Foxtail, Giant (foxtail, giant; 31 g ai/ha): 0
Plant response rating, Foxtail, Giant (foxtail, giant; 62 g ai/ha): 20
Plant response rating, Foxtail, Giant (foxtail, giant; 125 g ai/ha): 50
Plant response rating, Foxtail, Giant (foxtail, giant; 250 g ai/ha): 80
Plant response rating, Field Bindweed (field bindweed; 31 g ai/ha): 40
Plant response rating, Field Bindweed (field bindweed; 62 g ai/ha): 60
Plant response rating, Field Bindweed (field bindweed; 125 g ai/ha): 65
Plant response rating, Field Bindweed (field bindweed; 250 g ai/ha): 60
Plant response rating, Waterhemp (waterhemp; 31 g ai/ha): 0
Plant response rating, Waterhemp (waterhemp; 62 g ai/ha): 0
Plant response rating, Waterhemp (waterhemp; 125 g ai/ha): 0
Plant response rating, Waterhemp (waterhemp; 250 g ai/ha): 35

O=C1NCC(c2ccc(F)c(F)c2)C1C(=O)Nc1cccc(F)c1F (stereo not shown) [Compound 17, N-(2,3-difluorophenyl)-4-(3,4-difluorophenyl)-2-oxo-3-pyrrolidinecarboxamide]
Plant response rating, Foxtail, Giant (foxtail, giant; 16 g ai/ha): 0
Plant response rating, Foxtail, Giant (foxtail, giant; 31 g ai/ha): 35
Plant response rating, Foxtail, Giant (foxtail, giant; 62 g ai/ha): 35
Plant response rating, Foxtail, Giant (foxtail, giant; 125 g ai/ha): 95
Plant response rating, Foxtail, Giant (foxtail, giant; 250 g ai/ha): 98
Plant response rating, Barnyardgrass (barnyardgrass; 125 g ai/ha): 90
Plant response rating, Barnyardgrass (barnyardgrass; 250 g ai/ha): 90
Plant response rating, Barnyardgrass (barnyardgrass; 500 g ai/ha): 90
Plant response rating, Barnyardgrass (barnyardgrass; 1000 g ai/ha): 95
Plant response rating, Barnyardgrass (barnyardgrass; 2000 g ai/ha): 100
Plant response rating (oat, wild; 16 g ai/ha): 0
Plant response rating (oat, wild; 31 g ai/ha): 0
Plant response rating (oat, wild; 62 g ai/ha): 0
Plant response rating (oat, wild; 125 g ai/ha): 0
Plant response rating (oat, wild; 250 g ai/ha): 0
Plant response rating, Field Bindweed (field bindweed; 16 g ai/ha): 0
Plant response rating, Field Bindweed (field bindweed; 31 g ai/ha): 0
Plant response rating, Field Bindweed (field bindweed; 62 g ai/ha): 0
Plant response rating, Field Bindweed (field bindweed; 125 g ai/ha): 0
Plant response rating, Field Bindweed (field bindweed; 250 g ai/ha): 0
Plant response rating (field violet; Postemergence, 16 g ai/ha): 0
Plant response rating (field violet; Postemergence, 31 g ai/ha): 0
Plant response rating (field violet; Postemergence, 62 g ai/ha): 0
Plant response rating (field violet; Postemergence, 125 g ai/ha): 0
Plant response rating (field violet; Postemergence, 250 g ai/ha): 10
Plant response rating, Waterhemp (waterhemp; 16 g ai/ha): 0
Plant response rating, Waterhemp (waterhemp; 31 g ai/ha): 0
Plant response rating, Waterhemp (waterhemp; 62 g ai/ha): 0
Plant response rating, Waterhemp (waterhemp; 125 g ai/ha): 0
Plant response rating, Waterhemp (waterhemp; 250 g ai/ha): 0

— patent US10294202B2, “Pyrrolidinones as herbicides” (FMC Corporation, priority 2013, dated 2019)
